A word on the IC50: it is the midpoint of a concentration-inhibition curve.

The record followed here is patent US11453647B2, “Benzimidazole derivatives as adenosine receptor antagonists” (Merck Patent GmbH, priority 2017, dated 2022).

Holding throughout (format): cell-based
The target in test [1] is T1, human A1 receptor (Homo sapiens, UniProt P30542).
T1 construct: expressed in transfected cells; host or cells: CHO
T1 sequence (P30542 1-326): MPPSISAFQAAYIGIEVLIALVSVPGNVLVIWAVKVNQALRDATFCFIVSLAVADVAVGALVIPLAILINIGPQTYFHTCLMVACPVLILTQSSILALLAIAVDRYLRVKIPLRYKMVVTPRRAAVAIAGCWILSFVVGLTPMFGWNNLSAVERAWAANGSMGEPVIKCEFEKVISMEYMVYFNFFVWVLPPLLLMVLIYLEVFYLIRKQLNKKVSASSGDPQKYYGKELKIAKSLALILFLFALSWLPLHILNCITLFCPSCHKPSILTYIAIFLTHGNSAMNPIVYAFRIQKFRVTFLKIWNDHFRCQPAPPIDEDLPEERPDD
Put plainly: functional cAMP (HTRF) assay, recombinant CHO cells expressing human A1 receptor, forskolin, agonist CPA. In outline: (§1)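 Normalized HTRF cAMP signals (inhibitor and DMSO controls as references) were curve-fitted; assays used forskolin-stimulated CHO cells with A1 or A3, agonist CPA or IB-MECA respectively, 30 min compound incubation.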
A general note: In TR-FRET formats the signal depends on donor and acceptor labels being close together.

In test [2] the target is T2, human A3 receptor (Homo sapiens, UniProt P0DMS8).
T2 construct: expressed in transfected cells; host or cells: CHO
T2 sequence (P0DMS8 1-318): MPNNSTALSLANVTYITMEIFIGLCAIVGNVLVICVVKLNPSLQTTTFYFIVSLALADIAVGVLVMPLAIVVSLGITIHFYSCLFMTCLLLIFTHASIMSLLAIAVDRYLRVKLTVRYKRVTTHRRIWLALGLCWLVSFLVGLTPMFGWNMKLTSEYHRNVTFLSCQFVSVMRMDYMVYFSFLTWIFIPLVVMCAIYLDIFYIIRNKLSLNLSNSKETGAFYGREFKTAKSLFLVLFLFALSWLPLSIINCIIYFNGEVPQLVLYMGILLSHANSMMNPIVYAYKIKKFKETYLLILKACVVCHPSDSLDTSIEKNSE
The test can be described thus: functional cAMP (HTRF) assay, recombinant CHO cells expressing human A3 receptor, forskolin, agonist IB-MECA. In short, it runs like this:
as §1

The target in test [3] is T3, human A2A receptor (Homo sapiens, UniProt P29274).
T3 construct: expressed in transfected cells; host or cells: HEK293
Put plainly: functional cAMP (HTRF) assay, recombinant HEK293 cells expressing human A2A receptor, agonist NECA.

For test [4], the target named is T4, A2B receptors (Homo sapiens, UniProt P29275).
T4 sequence (P29275 1-332): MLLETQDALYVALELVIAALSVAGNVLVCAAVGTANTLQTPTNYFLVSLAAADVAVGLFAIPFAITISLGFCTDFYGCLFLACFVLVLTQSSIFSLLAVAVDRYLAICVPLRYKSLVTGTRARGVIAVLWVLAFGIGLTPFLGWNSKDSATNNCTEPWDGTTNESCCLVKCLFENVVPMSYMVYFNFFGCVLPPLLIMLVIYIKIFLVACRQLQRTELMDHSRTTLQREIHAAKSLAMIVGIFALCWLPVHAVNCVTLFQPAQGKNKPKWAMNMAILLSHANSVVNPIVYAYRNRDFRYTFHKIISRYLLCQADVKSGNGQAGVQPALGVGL
The test can be described thus: functional cAMP (HTRF) assay, recombinant HEK293 cells expressing human A2B receptor, agonist NECA. On the set-up: expressed in transfected cells; host or cells: HEK293.

T3 sequence (P29274 whole entry): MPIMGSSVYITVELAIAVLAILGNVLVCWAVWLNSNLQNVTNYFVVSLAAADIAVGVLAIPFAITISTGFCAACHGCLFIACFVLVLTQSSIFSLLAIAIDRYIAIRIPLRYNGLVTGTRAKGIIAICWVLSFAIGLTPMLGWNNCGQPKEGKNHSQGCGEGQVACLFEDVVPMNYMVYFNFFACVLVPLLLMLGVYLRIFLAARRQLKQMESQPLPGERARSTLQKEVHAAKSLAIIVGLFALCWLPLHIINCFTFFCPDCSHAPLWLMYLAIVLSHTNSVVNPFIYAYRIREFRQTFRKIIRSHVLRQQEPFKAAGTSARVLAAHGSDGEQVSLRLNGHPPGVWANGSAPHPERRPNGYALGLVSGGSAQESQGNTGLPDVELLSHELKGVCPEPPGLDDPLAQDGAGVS

For the molecule `COc1ccc(-c2cccc(F)c2)c2nc(NC(=O)c3ccc(C(=O)N(C)C)cc3)[nH]c12` [compound 240, N4-[4-(3-fluorophenyl)-7-methoxy-1H-1,3-benzodiazol-2-yl]-N1,N1-dimethylbenzene-1,4-dicarboxamide], the IC50 in test [1] was < 1000 nM; in test [2], < 1000 nM; in test [3], < 10 nM; in test [4], < 10 nM.

Turning to `COc1ccc(-c2ccccc2F)c2nc(NC(=O)c3ccc(C(=O)N(C)C)cc3)[nH]c12` [compound 242, N4-[4-(2-fluorophenyl)-7-methoxy-1H-1,3-benzodiazol-2-yl]-N1,N1-dimethylbenzene-1,4-dicarboxamide], the IC50 in test [1] was < 1000 nM; in test [2], < 1000 nM; in test [3], < 10 nM; in test [4] it was < 10 nM.

Take `COc1ccc(-c2cnn(C)c2)c2nc(NC(=O)c3ccc(N4C(=O)CCC4=O)cc3)[nH]c12` [compound 248, 4-(2,5-dioxopyrrolidin-1-yl)-N-[7-methoxy-4-(1-methyl-1H-pyrazol-4-yl)-1H-1,3-benzodiazol-2-yl]benzamide]: the IC50 was > 1000 nM in test [1], > 1000 nM in test [2], < 10 nM in test [3] and < 100 nM in test [4].

As for `COc1ccc(-c2ccccc2)c2nc(NC(=O)c3c[nH]cn3)[nH]c12` [compound 253, N-(7-methoxy-4-phenyl-1H-1,3-benzodiazol-2-yl)-1H-imidazole-4-carboxamide], the IC50 in test [1] was < 1000 nM; in test [2], < 1000 nM; in test [3], < 10 nM; in test [4], < 10 nM.

As for `COc1ccc(-c2ccccc2)c2nc(NC(=O)c3c[nH]c(C)n3)[nH]c12` [compound 255, N-(7-methoxy-4-phenyl-1H-1,3-benzodiazol-2-yl)-2-methyl-1H-imidazole-4-carboxamide], the IC50 is < 1000 nM in test [1], < 1000 nM in test [2], < 10 nM in test [3] and < 10 nM in test [4].

As to `COc1ccc(-c2cccnc2)c2nc(NC(=O)c3ccc(C(=O)N(C)C)cc3)[nH]c12` [compound 259, N4-[7-methoxy-4-(pyridin-3-yl)-1H-1,3-benzodiazol-2-yl]-N1,N1-dimethylbenzene-1,4-dicarboxamide], the IC50 was < 1000 nM in test [1], > 1000 nM in test [2], < 10 nM in test [3] and < 10 nM in test [4].

On to `COc1ccc(C2=CCOC2)c2nc(NC(=O)c3ccc(C(=O)N(C)C)cc3)[nH]c12` [compound 261, N4-[4-(2,5-dihydrofuran-3-yl)-7-methoxy-1H-1,3-benzodiazol-2-yl]-N1,N1-dimethylbenzene-1,4-dicarboxamide], for which the IC50 in test [1] was > 1000 nM; in test [2], < 1000 nM; in test [3], < 10 nM; in test [4], < 10 nM.

In the case of `COc1cc(F)c(C2=CCOCC2)c2nc(NC(=O)c3ccc(C(=O)N(C)C)cc3)[nH]c12` [compound 262, N4-[4-(3,6-dihydro-2H-pyran-4-yl)-5-fluoro-7-methoxy-1H-1,3-benzodiazol-2-yl]-N1,N1-dimethylbenzene-1,4-dicarboxamide], the IC50 in test [1] was > 1000 nM; in test [2], < 1000 nM; in test [3], < 10 nM; in test [4], < 10 nM.

With `COc1cc(F)c(C2=CCOCC2)c2nc(NC(=O)c3cnn(C)c3)[nH]c12` [compound 264, N-[4-(3,6-dihydro-2H-pyran-4-yl)-5-fluoro-7-methoxy-1H-1,3-benzodiazol-2-yl]-1-methyl-1H-pyrazole-4-carboxamide], the IC50 in test [1] is > 1000 nM; in test [2] it was < 1000 nM; in test [3] it was < 10 nM; in test [4], < 100 nM.

For the molecule `COc1ccc(-c2cccc(F)c2)c2[nH]c(NC(=O)c3c[nH]cn3)nc12` [compound 265, N-[7-(3-fluorophenyl)-4-methoxy-1H-1,3-benzodiazol-2-yl]-1H-imidazole-4-carboxamide], the IC50 was < 1000 nM in test [1], < 1000 nM in test [2], < 10 nM in test [3] and < 100 nM in test [4].

Take `COc1ccc(-c2cccnc2)c2[nH]c(NC(=O)c3c[nH]cn3)nc12` [compound 268, N-[4-methoxy-7-(pyridin-3-yl)-1H-1,3-benzodiazol-2-yl]-1H-imidazole-4-carboxamide]: the IC50 in test [1] is > 1000 nM; in test [2], > 1000 nM; in test [3], < 10 nM; in test [4] it was < 100 nM.

With `COc1ccc(-c2ccccc2)c2nc(NC(=O)c3cn(C)nc3C)[nH]c12` [compound 269, N-(7-methoxy-4-phenyl-1H-1,3-benzodiazol-2-yl)-1,3-dimethyl-1H-pyrazole-4-carboxamide], the IC50 is > 1000 nM in test [1], < 1000 nM in test [2], < 100 nM in test [3] and < 100 nM in test [4].

For the molecule `COc1ccc(-c2cccc3[nH]ncc23)c2nc(NC(=O)N3CCC(C)(O)CC3)[nH]c12` [compound 271, 4-hydroxy-N-[4-(1H-indazol-4-yl)-7-methoxy-1H-1,3-benzodiazol-2-yl]-4-methylpiperidine-1-carboxamide], the IC50 in test [1] was > 1000 nM; in test [2], > 1000 nM; in test [3], < 100 nM; in test [4], < 100 nM.

In the case of `COCCn1cc(C(=O)Nc2nc3c(-c4ccnc5[nH]ccc45)ccc(OC)c3[nH]2)cn1` [compound 278, N-(7-methoxy-4-{1H-pyrrolo[2,3-b]pyridin-4-yl}-1H-1,3-benzodiazol-2-yl)-1-(2-methoxyethyl)-1H-pyrazole-4-carboxamide], the IC50 in test [1] was > 1000 nM; in test [2], < 1000 nM; in test [3], < 100 nM; in test [4] it was < 100 nM.

For the molecule `COCCn1cc(C(=O)Nc2nc3c(-c4cccc5[nH]ncc45)ccc(OC)c3[nH]2)cn1` [compound 279, N-[4-(1H-indazol-4-yl)-7-methoxy-1H-1,3-benzodiazol-2-yl]-1-(2-methoxyethyl)-1H-pyrazole-4-carboxamide], the IC50 in test [1] was < 1000 nM; in test [2] it was < 1000 nM; in test [3], < 100 nM; in test [4], < 100 nM.

Take `COCCn1cc(C(=O)Nc2nc3c(-c4ccc5[nH]nc(C)c5c4)ccc(OC)c3[nH]2)cn1` [compound 282, N-[7-methoxy-4-(3-methyl-1H-indazol-5-yl)-1H-1,3-benzodiazol-2-yl]-1-(2-methoxyethyl)-1H-pyrazole-4-carboxamide]: the IC50 in test [1] was < 1000 nM; in test [2], < 1000 nM; in test [3], < 100 nM; in test [4], < 100 nM.

On to `COCCn1cc(C(=O)Nc2nc3c(-c4cccc5c4CCN5)ccc(OC)c3[nH]2)cn1` [compound 283, N-[4-(2,3-dihydro-1H-indol-4-yl)-7-methoxy-1H-1,3-benzodiazol-2-yl]-1-(2-methoxyethyl)-1H-pyrazole-4-carboxamide], for which the IC50 in test [1] was > 1000 nM; in test [2] it was < 1000 nM; in test [3] it was < 100 nM; in test [4], < 100 nM.

As to `COc1ccc(-c2ccccc2)c2nc(NC(=O)c3ccc(C(=O)N(C)C)cn3)[nH]c12` [compound 284, N2-(7-methoxy-4-phenyl-1H-1,3-benzodiazol-2-yl)-N5,N5-dimethylpyridine-2,5-dicarboxamide], the IC50 was > 1000 nM in test [1], > 1000 nM in test [2], < 100 nM in test [3] and < 100 nM in test [4].

On to `COc1ccc(-c2ccccc2)c2nc(NC(=O)c3ccc(N4C(=O)CCC4=O)cc3)[nH]c12` [compound 285, 4-(2,5-dioxopyrrolidin-1-yl)-N-(7-methoxy-4-phenyl-1H-1,3-benzodiazol-2-yl)benzamide], for which the IC50 was < 1000 nM in test [1], < 1000 nM in test [2], < 100 nM in test [3] and < 10 nM in test [4].

As to `COc1ccc(-c2ccccc2)c2nc(NC(=O)N3CCC(F)(F)CC3)[nH]c12` [compound 287, 4,4-difluoro-N-(7-methoxy-4-phenyl-1H-1,3-benzodiazol-2-yl)piperidine-1-carboxamide], the IC50 is < 1000 nM in test [1], > 1000 nM in test [2], < 100 nM in test [3] and < 100 nM in test [4].
